Measured values: ChEMBL document CHEMBL1201862, “PubChem BioAssay data set” (2004)
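Method: 48-hour compound exposure of cells in 96-well plates, five concentrations, linear interpolation of endpoints. Abbreviation: GI50, concentration required for 50% inhibition of growth.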 Active and inactive are the calls of the source. Rule as the data show it: active = GI50 up to about 1.1 µM and inactive = higher.

Assays:
Assay in all cases: DTP human tumour cell line panel, 48 h
[1] = system: HOP-62
[2] = system: SF-295
[3] = system: ACHN
[4] = system: SNB-75
[5] = system: 786-0
[6] = system: HL-60
[7] = system: SW-620
[8] = system: SNB-19
[9] = system: LOX IMVI
[10] = system: CAKI-1
[11] = system: SK-OV-3
[12] = system: UACC-62
[13] = system: EKVX
[14] = system: M14
[15] = system: A549
[16] = system: SF-268
[17] = system: COLO 205
[18] = system: MDA-MB-435
[19] = system: NCI/ADR-RES

## CCC1(N=[N+]=[N-])C(=O)c2ccccc2N(C)C1=O (configuration not stated)
[1]
  GI50: > 100 µM (inactive)
[2]
  GI50: > 100 µM (inactive)
[3]
  GI50: > 100 µM (inactive)
[4]
  GI50: > 100 µM (inactive)
[5]
  GI50: > 100 µM (inactive)
[6]
  GI50: > 100 µM (inactive)
[7]
  GI50: > 100 µM (inactive)
[8]
  GI50: > 100 µM (inactive)
[9]
  GI50: > 100 µM (inactive)
[10]
  GI50: > 100 µM (inactive)
[11]
  GI50: > 100 µM (inactive)
[12]
  GI50: > 100 µM (inactive)
[13]
  GI50: > 100 µM (inactive)
[14]
  GI50: > 100 µM (inactive)
[15]
  GI50: > 100 µM (inactive)
[16]
  GI50: > 100 µM (inactive)
[17]
  GI50: > 100 µM (inactive)

## O=C(OCN1C(=O)C2C3C=CC(C2C1=O)C1C2C(=O)N(COC(=O)C4CCCN4)C(=O)C2C31)C1CCCN1 (configuration not stated)
[1]
  GI50: > 100 µM (inactive)
[2]
  GI50: > 82.6 µM (inactive)
[3]
  GI50: > 50.5 µM (inactive)
[4]
  GI50: > 82.6 µM (inactive)
[5]
  GI50: 35.6 µM (inactive)
[6]
  GI50: 22.1 µM (inactive)
[7]
  GI50: 30.2 µM (inactive)
[8]
  GI50: > 100 µM (inactive)
[9]
  GI50: 35.9 µM (inactive)
[10]
  GI50: > 86.9 µM (inactive)
[11]
  GI50: > 100 µM (inactive)
[12]
  GI50: > 76.7 µM (inactive)
[13]
  GI50: > 100 µM (inactive)
[14]
  GI50: 71.6 µM (inactive)
[15]
  GI50: 62.5 µM (inactive)
[16]
  GI50: > 51.3 µM (inactive)
[17]
  GI50: 59.8 µM (inactive)

## CC1(C)CC2(C)OC(=N)C1(C#N)C2(C#N)C#N (configuration not stated)
[2]
  GI50: 16.3 µM (inactive)
[3]
  GI50: 7.64 µM (inactive)
[5]
  GI50: 2.63 µM (inactive)
[6]
  GI50: 2.98 µM (inactive)
[7]
  GI50: 3.1 µM (inactive)
[18]
  GI50: 11.9 µM (inactive)
[8]
  GI50: 16.2 µM (inactive)
[9]
  GI50: 1.68 µM (inactive)
[10]
  GI50: 1.02 µM (active)
[11]
  GI50: 53.1 µM (inactive)
[19]
  GI50: 13 µM (inactive)
[12]
  GI50: 12.4 µM (inactive)
[13]
  GI50: 5.02 µM (inactive)
[14]
  GI50: 11.6 µM (inactive)
[15]
  GI50: 23.2 µM (inactive)
[16]
  GI50: 15.6 µM (inactive)
[17]
  GI50: 2.56 µM (inactive)

## CC1(Br)C(=O)NC(=O)N(C2CC(N=[N+]=[N-])C(CO)O2)C1N=[N+]=[N-] (configuration not stated)
[1]
  GI50: > 100 µM (inactive)
[2]
  GI50: > 100 µM (inactive)
[3]
  GI50: > 100 µM (inactive)
[4]
  GI50: > 100 µM (inactive)
[5]
  GI50: > 100 µM (inactive)
[6]
  GI50: > 100 µM (inactive)
[7]
  GI50: > 100 µM (inactive)
[8]
  GI50: > 100 µM (inactive)
[9]
  GI50: > 100 µM (inactive)
[10]
  GI50: 70.8 µM (inactive)
[11]
  GI50: > 100 µM (inactive)
[12]
  GI50: > 100 µM (inactive)
[13]
  GI50: > 100 µM (inactive)
[14]
  GI50: > 100 µM (inactive)
[15]
  GI50: > 100 µM (inactive)
[16]
  GI50: > 100 µM (inactive)
[17]
  GI50: > 100 µM (inactive)

## O=C1CCC[C@]2(CCCC(=O)N2)C1
[1]
  GI50: > 100 µM (inactive)
[2]
  GI50: > 100 µM (inactive)
[3]
  GI50: > 100 µM (inactive)
[4]
  GI50: 77.4 µM (inactive)
[5]
  GI50: > 100 µM (inactive)
[6]
  GI50: > 100 µM (inactive)
[7]
  GI50: > 100 µM (inactive)
[8]
  GI50: > 100 µM (inactive)
[9]
  GI50: > 100 µM (inactive)
[10]
  GI50: > 100 µM (inactive)
[11]
  GI50: > 100 µM (inactive)
[12]
  GI50: > 100 µM (inactive)
[13]
  GI50: > 100 µM (inactive)
[14]
  GI50: > 100 µM (inactive)
[15]
  GI50: > 100 µM (inactive)
[16]
  GI50: > 100 µM (inactive)
[17]
  GI50: > 100 µM (inactive)

## COc1ccc(-c2ccc(C(=O)C=P(c3ccccc3)(c3ccccc3)c3ccccc3)cc2)cc1
[1]
  GI50: 17.9 µM (inactive)
[2]
  GI50: 10.4 µM (inactive)
[3]
  GI50: 13.3 µM (inactive)
[5]
  GI50: 16.7 µM (inactive)
[6]
  GI50: 3.94 µM (inactive)
[7]
  GI50: 14.6 µM (inactive)
[18]
  GI50: 12.2 µM (inactive)
[8]
  GI50: 25.6 µM (inactive)
[9]
  GI50: 13.2 µM (inactive)
[10]
  GI50: 11.4 µM (inactive)
[11]
  GI50: 16.9 µM (inactive)
[19]
  GI50: 13 µM (inactive)
[12]
  GI50: 15.2 µM (inactive)
[13]
  GI50: 6.59 µM (inactive)
[14]
  GI50: 11.6 µM (inactive)
[15]
  GI50: 6.95 µM (inactive)
[16]
  GI50: 24.3 µM (inactive)
[17]
  GI50: 3.94 µM (inactive)

## COC1=CC(=O)C(O)=C(CC2(C)C(C)CCC3(C)C2CCCC3(C)C)C1=O (configuration not stated)
[1]
  GI50: 3.64 µM (inactive)
[2]
  GI50: 2.89 µM (inactive)
[3]
  GI50: 3.89 µM (inactive)
[4]
  GI50: 3.89 µM (inactive)
[5]
  GI50: 3.86 µM (inactive)
[6]
  GI50: 2.58 µM (inactive)
[7]
  GI50: 4.03 µM (inactive)
[8]
  GI50: 3.58 µM (inactive)
[9]
  GI50: 4.6 µM (inactive)
[10]
  GI50: 3.34 µM (inactive)
[11]
  GI50: 18.2 µM (inactive)
[12]
  GI50: 2.04 µM (inactive)
[13]
  GI50: 5.83 µM (inactive)
[14]
  GI50: 2.18 µM (inactive)
[15]
  GI50: 2.99 µM (inactive)
[16]
  GI50: 4.37 µM (inactive)
[17]
  GI50: 5.51 µM (inactive)

## O=S(=O)(O)C(O)/C=C/c1ccccc1 (configuration not stated)
[1]
  GI50: > 100 µM (inactive)
[2]
  GI50: > 100 µM (inactive)
[3]
  GI50: > 100 µM (inactive)
[4]
  GI50: > 100 µM (inactive)
[5]
  GI50: > 100 µM (inactive)
[6]
  GI50: > 100 µM (inactive)
[7]
  GI50: > 100 µM (inactive)
[8]
  GI50: > 100 µM (inactive)
[9]
  GI50: 49.3 µM (inactive)
[10]
  GI50: > 100 µM (inactive)
[11]
  GI50: > 100 µM (inactive)
[12]
  GI50: > 100 µM (inactive)
[13]
  GI50: > 100 µM (inactive)
[14]
  GI50: > 100 µM (inactive)
[15]
  GI50: > 100 µM (inactive)
[16]
  GI50: > 100 µM (inactive)
[17]
  GI50: > 100 µM (inactive)
